Results on ten compounds are retold here after paper PMC9050848, “Carbamoyl-N-aryl-imine-urea: a new framework to obtain a putative leishmanicidal drug-candidate” (RSC Advances, 2020).

Experiment [1] has as its system J774.A1 cell lines (macrophages). Kind of experiment: Cytotoxicity against J774.A1 macrophages, MTT assay. It counts as cell-based, murine (BALB/c). The settings on record: Mus musculus; J774.A1 macrophages, 48 h incubation, MTT, 0.1–100 μM; read-out: IC50 (concentration required to give 50% death of cells). On the procedure:
Initially the cytotoxic profile of compounds 9a–e and 10a–e against J774.A1 cell lines (i.e., BALB/c macrophage cell lines) was investigated. Therefore, these cells were exposed to different concentrations (0.1–100 μM) of compounds 9a–e and 10a–e and the cytotoxic effect was measured after 48 h of drug incubation, by using MTT-based assay. The cytotoxicity was expressed as IC50 values (that means the concentration of a drug that kills half of the tested cells in culture). As depicted in Table 1, most compounds have shown low cytotoxic activity with IC50 > 100 μM.
These adherent-phenotype macrophage lines were cultured in Dulbecco's Modified Eagle's medium (DMEM, Sigma) supplemented with 10% FBS at 37 °C with 95% humidity and 5% CO2.
To evaluate the cytotoxic activity against the J774.A1 cell line, the host cells were plated in 96-well cell culture plate (flat bottom, clear, Corning) at 2 × 10^5 cells per well in complete culture medium 10% FBS at 37 °C. After 1 h wells were washed with warm Hank's Balanced Salt solution (HBSS) to remove non-adherent cells, leaving approximately 10^5 adherent macrophages. All cultures were done in DMEM complete supplemented with 10% FBS. The compounds and pentamidine were added at serial concentrations (0.1–100 μM). The cells were also cultured with medium free from compounds or vehicle (basal growth control) or in media with DMSO 0.1% (vehicle control). Positive control (dead cells) was obtained by cellular lysis with 1% of Triton 100× in DMEM complete (because it is a detergent in this concentration, Triton 100× destabilizes the cell membrane of macrophages, causing cell death). The cytotoxicity was evaluated by the MTT assay.[31] This assay consists of indirectly measuring cell viability through the mitochondrial enzymatic activity of macrophages. Viable cells are capable of reducing MTT to formazan. For this, after the incubation of plate for 48 h, 100 μL of MTT solution (0.5 mg mL^−1, in DMEM medium) was added per well, and the plate was incubated for 1 h. Then, the supernatant of each well was retired and was added 150 μL of DMSO. The absorbance was determined at 570 nm in a microplate reader. The cell viability of the cultures treated with the compounds was compared to the death pattern obtained in the control cultures. In the positive control, the cell death was confirmed when the optical density was equal to zero, confirming that the cells were not viable. Data obtained from experiments were expressed as the mean ± standard error of the mean (mean ± S.E.M.) and statistical differences between the treated and the vehicle groups of experiments were evaluated by ANOVA and Dunnett hoc tests.

The subject of experiment [2] is L. braziliensis intracellular amastigotes. Nature of the experiment: Leishmanicidal activity against intracellular amastigote forms of L. braziliensis in J774.A1 macrophages. It counts as cell-based. To be noted: Leishmania braziliensis, J774.A1, L. braziliensis intracellular amastigotes; for IC50: 24 h, read-out: IC50 (concentration required to give 50% death of parasites); for Emax: maximum toxicity vs 0.1% DMSO group, read-out: Maximum effect (% ± S.E.M.). From the text:
Further, the leishmanicidal activity against intracellular amastigotes forms of L. braziliensis were also investigated (Table 2).
(§1) Promastigotes of L. amazonensis (MHOM/BR/77/LTB0016) were obtained from Dr Eduardo Caio Torres dos Santos at Oswaldo Cruz Institute – Fiocruz. Promastigotes of L. braziliensis (MHOM/BR/01/BA788) were obtained from Dr Valéria de Matos Borges at Gonçalo Moniz Research Center – Fiocruz. The parasites were maintained in vitro in Schneider's medium, supplemented with 10% FBS and 2% human urine at 27 °C in BOD incubator.
(§2) Initially, compounds 9a–e and 10a–e were evaluated at screening concentration of 30 μM against L. amazonensis, using DMSO 0.03% as vehicle control, since this was the DMSO concentration (vehicle) remaining in each well with the tested compounds. […] Vehicle control used was DMSO 0.1%, since this was the concentration of DMSO (vehicle) existing in each well with the tested substances in the highest concentration used.
(§3) To assess the activity of the test derivatives against the amastigote stage of L. amazonensis and L. braziliensis the model of infection in coverglass was realized.[31] The murine macrophages (J774.A1 cell line) were prepared in 24-well cell culture plate (flat bottom, clear, Corning) at 2 × 10^5 adherent cells per well, infected with 2 × 10^6 promastigotes in glass coverslips placed inside 1 mL medium culture. The cultures were cultured or not with the test derivatives or reference drugs, and kept for 24 h at 37 °C, 5% CO2. After 24 h of incubation, the coverslips were washed, stained with Giemsa–May–Grünwald, and intracellular amastigotes were counted in 100 macrophages, using an optical microscope, on the objective of 100×. Thus, during the counting of 100 macrophages, the amount of amastigotes present within these defence cells was also determined. Data obtained from in vitro experiments were expressed as the mean ± S.E.M. of duplicate cultures of representative assays. Statistical differences between the treated and the control groups were evaluated by ANOVA and Dunnett hoc tests. Differences with a p value < 0.05 or lower were considered significant.

Experiment [3] relates to L. amazonensis intracellular amastigotes. Kind of experiment: Leishmanicidal activity against intracellular amastigote forms of L. amazonensis in J774.A1 macrophages. It is filed as cell-based. To be noted: for Effect on the number of intracellular amastigotes: L. amazonensis, screening concentration 30 μM; for IC50 / Emax: Leishmania amazonensis, J774.A1, L. amazonensis intracellular amastigotes; for IC50: 24 h, read-out: IC50 (concentration required to give 50% death of parasites); for Emax: maximum toxicity vs 0.1% DMSO group, read-out: Maximum effect (% ± S.E.M.). The procedure: Considering that L. amazonensis is one of the causative species of cutaneous leishmaniasis in Brazil,[20] we have investigated the leishmanicidal effect of compounds 9a–e and 10a–e against L. amazonensis amastigotes forms. Initially, all compounds were evaluated at 30 μM. […] Then, they were selected to determine their IC50 value for intracellular amastigote forms of L. amazonensis.
as §1, §2, §3

The mark [4] stands for this setting: L. amazonensis amastigotes, ratio of IC50 values.

For `O=C(N/N=C/c1ccc([N+](=O)[O-])o1)NNC(=O)c1ccc(Cl)cc1` [LASSBio-1491 (9a), 4-chloro-phenylcarbamoyl-N-5-nitrofuranimine-urea], in experiment [1], the IC50 was more than 100 µM.
On to `O=C(N/N=C/c1ccc([N+](=O)[O-])o1)NNC(=O)c1ccc(Cl)cc1Cl` [LASSBio-1703 (10a), 2,4-dichloro-phenylcarbamoyl-N-5-nitrofuranimine-urea], for which the IC50 in experiment [1] was more than 100 µM.
For the compound `O=C(N/N=C/c1ccccc1O)NNC(=O)c1ccc(Cl)cc1` [LASSBio-1704 (9b), 4-chloro-phenylcarbamoyl-N-2-hydroxyphenylimine-urea], in experiment [2], the IC50 was more than 100 µM and the Emax turned out to be 48.1 ± 4.5%. In addition, the IC50 in experiment [1] is more than 100 µM. Moreover, in experiment [3] (setting [4]), the “Times less potent than miltefosine” value is approximately 4.0 times and the “Times less potent than pentamidine” value is listed as “about 2.5 times”. In experiment [3], the “Effect on the number of intracellular amastigotes” value (shortened to “Effect on the number”) is on record as “decreased the number of intracellular amastigotes”, the IC50 came to 85.3 ± 5 µM and the Emax turned out to be 55.6 ± 1.4%.
With `O=C(N/N=C/c1ccccc1O)NNC(=O)c1ccc(Cl)cc1Cl` [LASSBio-1705 (10b), 2,4-dichloro-phenylcarbamoyl-N-2-hydroxyphenylimine-urea], in experiment [1], the IC50 was 78.1 ± 4.5 µM.
For the compound `O=C(N/N=C/c1ccc(O)cc1)NNC(=O)c1ccc(Cl)cc1` [LASSBio-1706 (9d), 4-chloro-phenylcarbamoyl-N-4-hydroxyphenylimine-urea], in experiment [2], the IC50 amounted to 3.6 ± 0.6 µM and the Emax came to 70.4 ± 1.9%. In addition, the IC50 in experiment [1] worked out at 86.2 ± 8.7 µM. In experiment [3], the “Effect on the number” value was “decreased the number of intracellular amastigotes” and the IC50 is more than 100 µM.
As to `O=C(N/N=C/c1ccc(O)cc1)NNC(=O)c1ccc(Cl)cc1Cl` [LASSBio-1707 (10d), 2,4-dichloro-phenylcarbamoyl-N-4-hydroxyphenylimine-urea], in experiment [2], the IC50 is more than 100 µM. Further, in experiment [1], the IC50 was more than 100 µM. Further, in experiment [3], the “Effect on the number” value is “decreased the number of intracellular amastigotes”, the IC50 is more than 100 µM and the Emax turned out to be 44.4 ± 0.2%.
In the case of `O=C(N/N=C/c1cccc(O)c1)NNC(=O)c1ccc(Cl)cc1Cl` [LASSBio-1708 (10c), 2,4-dichloro-phenylcarbamoyl-N-3-hydroxyphenylimine-urea], the IC50 in experiment [2] was more than 100 µM. The IC50 in experiment [1] was more than 100 µM. In addition, in experiment [3], the “Effect on the number” value is listed as “decreased the number of intracellular amastigotes”, the IC50 is more than 100 µM and the Emax is 31 ± 1.7%.
With `O=C(N/N=C/c1cccc(O)c1)NNC(=O)c1ccc(Cl)cc1` [LASSBio-1709 (9c), 4-chloro-phenylcarbamoyl-N-3-hydroxyphenylimine-urea], the IC50 in experiment [1] is 85.2 ± 2.3 µM.
Take `O=C(N/N=C/c1ccc(C(F)(F)F)cc1)NNC(=O)c1ccc(Cl)cc1` [LASSBio-1737 (9e)]: the IC50 in experiment [1] is more than 100 µM.
In the case of `N=C(N)c1ccc(OCCCCCOc2ccc(C(=N)N)cc2)cc1` [Pentamidine, reference compound], the IC50 in experiment [2] was 78.4 ± 4.7 µM; in experiment [1] it was 35.5 ± 3.4 µM; in experiment [3] it was 32.8 ± 4.6 µM. Moreover, the Emax was determined as 61.7 ± 2.2% in experiment [2] and 59.1 ± 5.6% in experiment [3].
